Data from patent publication US20100016355A1, “ALPHA-2B ADRENERGIC RECEPTOR AGONIST AND SEROTONIN-NOREPINEPHRINE REUPTAKE INHIBITOR COMPOSITIONS FOR TREATING CHRONIC PAIN” (priority 2006, published 2010).

System: Chung rat model of chronic pain (allodynia)
Assay: Chung rat model of chronic pain
Format: in vivo
Conditions: rats
Experimental: Amitriptyline was administered intraperitoneally to rats at a minimally effective dose; that is, the compound was administered at a dose that, when administered alone, is the minimum dose required to relieve pain (this dose was calculated by finding, first, the dose that produced drug's maximum effect—that is, the dose that fully alleviated pain—and dividing that dose by […]; the result is a dose that is slightly less than 50% of the dose that is required to produce the drug's maximum effect) The rats then immediately received one of two alpha-2B receptor agonists, compound No. 95 and compound no. No. 27, or received no additional compound, at all. Compound No. 95 and Compound No. 27 were administered intraperitoneally at ineffective doses; that is, these compounds were administered at doses that, when administered alone, are not effective in relieving pain. Pain reversal was then assessed using the Chung rat model of chronic pain. The model is described by Kim and Chung, Pain, […], at 355-363 (1992) and in U.S. Pat. No. 7,091,232, both of which are incorporated by reference herein.

For `CN(C)CCC=C1c2ccccc2CCc2ccccc21` [Amitriptyline, reference compound], the “Pain Reversal” value (amitriptyline alone, 30 μg/kg intraperitoneally (minimally effective dose)) was 43% and the “Pain Reversal” value (amitriptyline alone, 30 μg/kg intraperitoneally (minimally effective dose), listed as amitriptyline) was 43%.

With `C1=NC(CC2CCc3ccccc3C2)CN1` (stereo not shown) [Compound No. 27] the “Pain Reversal” value (Compound No. 27 10 μg/kg i.p. (ineffective dose alone) given immediately after amitriptyline 30 μg/kg i.p.) was 81%.

With `C[C@@H](c1c[nH]c(=S)[nH]1)c1cccc2ncccc12` [Compound No. 95] the “Pain Reversal” value (Compound No. 95 1 μg/kg i.p. (ineffective dose alone) given immediately after amitriptyline 30 μg/kg i.p.) was 80%.
